# Target: T7 RNA Polymerase (Escherichia phage T7, UniProt P00573)
# Type: biochemical
# Details: 20 μL transcription system, Cap1 Analog 4 mM, 37° C. 2 to 3 hours
# Description: • 1) A plasmid was linearized and the DNA template was purified. • 2) mRNA was synthesized in vitro with 51 types of capping structures of the present disclosure, or without any cap analogues. CleanCap®AG (3′OMe) (Trilink, N-7413) was applied as positive control group, uncapped mRNA was negative control group, and DNAase/RNase-Free water was a blank control group.
# The system was incubated for 2 to 3 hours at 37° C. and digested by TURBO DNase for 15 min LiCl was used to precipitate mRNA for at least 30 min, or overnight, mRNA precipitates were then washed with 75% ethanol. After ethanol was quickly volatilized, mRNA was re-solubilized with RNase-Free water. • 3) The transcribed products were purified and the transcription yields were calculated.
# Chain of T7 RNA Polymerase (P00573 whole entry): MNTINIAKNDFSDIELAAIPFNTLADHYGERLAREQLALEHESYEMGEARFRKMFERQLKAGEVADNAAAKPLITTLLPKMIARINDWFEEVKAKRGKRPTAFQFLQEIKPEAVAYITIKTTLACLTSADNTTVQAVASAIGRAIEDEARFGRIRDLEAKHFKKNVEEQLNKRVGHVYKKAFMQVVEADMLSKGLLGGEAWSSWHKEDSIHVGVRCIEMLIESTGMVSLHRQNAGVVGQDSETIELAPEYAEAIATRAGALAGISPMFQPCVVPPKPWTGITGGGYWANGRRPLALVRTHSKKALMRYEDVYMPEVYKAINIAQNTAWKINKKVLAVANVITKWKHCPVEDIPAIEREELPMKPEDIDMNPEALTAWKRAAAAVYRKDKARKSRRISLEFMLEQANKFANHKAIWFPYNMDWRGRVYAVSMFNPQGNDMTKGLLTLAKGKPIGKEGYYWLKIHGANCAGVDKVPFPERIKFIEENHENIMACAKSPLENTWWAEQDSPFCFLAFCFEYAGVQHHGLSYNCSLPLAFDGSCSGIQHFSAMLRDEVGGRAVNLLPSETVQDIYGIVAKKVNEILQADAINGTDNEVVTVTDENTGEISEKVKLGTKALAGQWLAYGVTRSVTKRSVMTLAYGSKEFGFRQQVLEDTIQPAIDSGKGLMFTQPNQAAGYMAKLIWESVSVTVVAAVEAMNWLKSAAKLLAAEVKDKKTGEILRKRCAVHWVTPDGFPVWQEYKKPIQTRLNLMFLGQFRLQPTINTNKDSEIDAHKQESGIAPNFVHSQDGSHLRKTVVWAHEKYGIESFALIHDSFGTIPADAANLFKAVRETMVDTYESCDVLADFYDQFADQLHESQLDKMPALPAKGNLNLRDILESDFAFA
row,SMILES,Final product mass obtained from the 20 μL of mRNA transcription system [µg]
1,COCC[C@H]1[C@@H](O)[C@H](n2c[n+](C)c3c(=O)[nH]c(N)nc32)O[C@@H]1COP(=O)(O)OP(=O)(O)OP(=O)(O)OC[C@H]1O[C@@H](n2cnc3c(N)ncnc32)[C@H](OC)[C@@H]1OP(=O)([O-])OC[C@H]1O[C@@H](n2cnc3c(=O)[nH]c(N)nc32)[C@H](O)[C@@H]1O [Compound 5],95
2,C=CCOC[C@H]1[C@@H](O)[C@H](n2c[n+](C)c3c(=O)[nH]c(N)nc32)O[C@@H]1COP(=O)(O)OP(=O)(O)OP(=O)(O)OC[C@H]1O[C@@H](n2cnc3c(N)ncnc32)[C@H](OC)[C@@H]1OP(=O)(O)OC[C@H]1O[C@@H](n2cnc3c(=O)[nH]c(N)nc32)[C@H](O)[C@@H]1O [Compound 33],103
3,C#CCOCC[C@H]1[C@@H](O)[C@H](n2c[n+](C)c3c(=O)[nH]c(N)nc32)O[C@@H]1COP(=O)(O)OP(=O)(O)OP(=O)(O)OC[C@H]1O[C@@H](n2cnc3c(N)ncnc32)[C@H](OC)[C@@H]1OP(=O)(O)OC[C@H]1O[C@@H](n2cnc3c(=O)[nH]c(N)nc32)[C@H](O)[C@@H]1O [Compound 51],114
4,COCCNC(=O)C[C@@H]1[C@@H](COP(=O)(O)OP(=O)(O)OP(=O)(O)OC[C@H]2O[C@@H](n3cnc4c(N)ncnc43)[C@H](OC)[C@@H]2OP(=O)([O-])OC[C@H]2O[C@@H](n3cnc4c(=O)[nH]c(N)nc43)[C@H](O)[C@@H]2O)OC(n2c[n+](C)c3c(=O)[nH]c(N)nc32)[C@@H]1O (stereo partly shown) [Compound 58],115
5,COC[C@H]1[C@@H](O)[C@H](n2c[n+](C)c3c(=O)[nH]c(N)nc32)O[C@@H]1COP(=O)(O)OP(=O)(O)OP(=O)(O)OC[C@H]1O[C@@H](n2cnc3c(N)ncnc32)[C@H](OC)[C@@H]1OP(=O)([O-])OC[C@H]1O[C@@H](n2ccc(=O)[nH]c2=O)[C@H](O)[C@@H]1O [Compound 110],106
6,CO[C@@H]1[C@H](OP(=O)([O-])OC[C@H]2O[C@@H](n3ccc(=O)[nH]c3=O)[C@H](O)[C@@H]2O)[C@@H](COP(=O)(O)OP(=O)(O)OP(=O)(O)OC[C@H]2OC(n3c[n+](C)c4c(=O)[nH]c(N)nc43)[C@H](O)[C@@H]2CNC(C)=O)O[C@H]1n1cnc2c(N)ncnc21 (stereo partly shown) [Compound 118],86
7,CO[C@@H]1[C@H](OP(=O)(O)OC[C@H]2O[C@@H](n3cnc4c(=O)[nH]c(N)nc43)[C@H](O)[C@@H]2O)[C@@H](COP(=O)(O)OP(=O)(O)OP(=O)(O)OC[C@H]2O[C@@H](n3c[n+](C)c4c(=O)[nH]c(N)nc43)[C@H](O)[C@@H]2CO)O[C@H]1n1cnc2c(N)ncnc21 [Compound 137],116
8,CCCCOC[C@H]1[C@@H](O)[C@H](n2c[n+](C)c3c(=O)[nH]c(N)nc32)O[C@@H]1COP(=O)(O)OP(=O)(O)OP(=O)(O)OC[C@H]1O[C@@H](n2cnc3c(N)ncnc32)[C@H](OC)[C@@H]1OP(=O)(O)OC[C@H]1O[C@@H](n2cnc3c(=O)[nH]c(N)nc32)[C@H](O)[C@@H]1O [Compound 151],110
9,CO[C@@H]1[C@H](OP(=O)([O-])OC[C@H]2O[C@@H](n3cnc4c(=O)[nH]c(N)nc43)[C@H](O)[C@@H]2O)[C@@H](COP(=O)(O)OP(=O)(O)OP(=O)(O)OC[C@H]2O[C@@H](n3c[n+](C)c4c(=O)[nH]c(N)nc43)[C@H](O)[C@@H]2CCO)O[C@H]1n1cnc2c(N)ncnc21 [Compound 153],65
10,CCCOCC[C@H]1[C@@H](O)[C@H](n2c[n+](C)c3c(=O)[nH]c(N)nc32)O[C@@H]1COP(=O)(O)OP(=O)(O)OP(=O)(O)OC[C@H]1O[C@@H](n2cnc3c(N)ncnc32)[C@H](OC)[C@@H]1OP(=O)(O)OC[C@H]1O[C@@H](n2cnc3c(=O)[nH]c(N)nc32)[C@H](O)[C@@H]1O [Compound 163],102
11,COC[C@H]1[C@@H](O)[C@H](n2c[n+](C)c3c(=O)[nH]c(N)nc32)O[C@@H]1COP(=O)(O)CP(=O)(O)OP(=O)(O)OC[C@H]1O[C@@H](n2cnc3c(N)ncnc32)[C@H](OC)[C@@H]1OP(=O)(O)OC[C@H]1O[C@@H](n2cnc3c(=O)[nH]c(N)nc32)[C@H](O)[C@@H]1O [Compound 171],105
12,COC[C@H]1[C@@H](O)[C@H](n2c[n+](C)c3c(=O)[nH]c(N)nc32)O[C@@H]1COP(=O)(O)OP(=O)(O)OP(=O)(O)OP(=O)(O)OC[C@H]1O[C@@H](n2cnc3c(N)ncnc32)[C@H](OC)[C@@H]1OP(=O)(O)OC[C@H]1O[C@@H](n2cnc3c(=O)[nH]c(N)nc32)[C@H](O)[C@@H]1O [Compound 189],92
13,COC[C@@H]1[C@@H](COP(=O)(O)OP(=O)([O-])OP(=O)([O-])OC[C@H]2O[C@@H](n3cnc4c(N)ncnc43)[C@H](OC)[C@@H]2NP(=O)(O)OC[C@H]2O[C@@H](n3cnc4c(=O)[nH]c(N)nc43)[C@H](O)[C@@H]2O)OC(n2c[n+](C)c3c(=O)[nH]c(N)nc32)[C@@H]1O.[Na+] (stereo partly shown) [Compound 195],69
14,CNc1ncnc2c1ncn2[C@@H]1O[C@H](COP(=O)(O)OP(=O)(O)OP(=O)(O)OC[C@H]2O[C@@H](n3c[n+](C)c4c(=O)[nH]c(N)nc43)[C@H](O)[C@@H]2COC)[C@@H](OP(=O)([O-])OC[C@H]2O[C@@H](n3cnc4c(=O)[nH]c(N)nc43)[C@H](O)[C@@H]2O)[C@H]1OC [Compound 197],121
15,COC[C@H]1[C@@H](O)[C@H](n2c[n+](C)c3c(=O)[nH]c(N)nc32)O[C@@H]1COP(=O)(O)OP(=O)(O)OP(=O)(O)OC[C@H]1O[C@@H](n2cnc3c(N)ncnc32)[C@H](OC)[C@@H]1OCOC[C@H]1O[C@@H](n2cnc3c(=O)[nH]c(N)nc32)[C@H](O)[C@@H]1O [Compound 199],95
16,CCO[C@@H]1[C@H](OP(=O)(O)OC[C@H]2O[C@@H](n3cnc4c(=O)[nH]c(N)nc43)[C@H](O)[C@@H]2O)[C@@H](COP(=O)(O)OP(=O)(O)OP(=O)(O)OCC2O[C@@H](n3c[n+](C)c4c(=O)[nH]c(N)nc43)[C@H](O)[C@@H]2COC)O[C@H]1n1cnc2c(N)ncnc21 (stereo partly shown) [Compound 203],96
17,COC[C@H]1[C@@H](O)[C@H](n2c[n+](Cc3ccccc3)c3c(=O)[nH]c(N)nc32)O[C@@H]1COP(=O)(O)OP(=O)(O)OP(=O)(O)OC[C@H]1O[C@@H](n2cnc3c(N)ncnc32)[C@H](OC)[C@@H]1OP(=O)([O-])OC[C@H]1O[C@@H](n2cnc3c(=O)[nH]c(N)nc32)[C@H](O)[C@@H]1O [Compound 215],95
18,COC[C@H]1[C@@H](O)[C@H](n2c[n+](C)c3c(=O)[nH]c(NC(C)C)nc32)O[C@@H]1COP(=O)(O)OP(=O)(O)OP(=O)(O)OC[C@H]1O[C@@H](n2cnc3c(N)ncnc32)[C@H](OC)[C@@H]1OP(=O)([O-])OC[C@H]1O[C@@H](n2cnc3c(=O)[nH]c(N)nc32)[C@H](O)[C@@H]1O [Compound 219],101
19,CO[C@@H]1[C@H](OP(=O)([O-])OC[C@H]2O[C@@H](n3cnc4c(=O)[nH]c(N)nc43)[C@H](O)[C@@H]2O)[C@@H](COP(=O)(O)OP(=O)(O)OP(=O)(O)OC[C@H]2O[C@@H](n3c[n+](C)c4c(=O)[nH]c(N)nc43)[C@H](O)[C@@H]2CNC=O)O[C@H]1n1cnc2c(N)ncnc21 [Compound 299],105

# Source: patent US12060385B2, “Compounds for RNA capping and uses thereof” (GUANGZHOU HENOVCOM BIOSCIENCE CO., LTD., priority 2022, dated 2024)
